From ChEMBL document CHEMBL1201862, “PubChem BioAssay data set” (2004)
Several values for one entry are separate records, joined by “and”; a condition that tells them apart may be missing. Equal values may be shown once.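 Each compound was tested at five concentrations against cells in 96-well plates for 48 hours. GI50: concentration for 50% inhibition of growth.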 Activity calls are given as the source filed them. Cut-off read from the data, not from the text of the source: active = GI50 up to about 1.1 µM and inactive = higher.

How the values were obtained:
Assay in all cases: NCI-60 cell line screen, 48 h
786-0 = test system: 786-0
HT-29 = test system: HT-29
SN12C = test system: SN12C
M14 = test system: M14
IGROV-1 = test system: IGROV-1
SNB-19 = test system: SNB-19
NCI-H226 = test system: NCI-H226
TK-10 = test system: TK-10
NCI/ADR-RES = test system: NCI/ADR-RES
COLO 205 = test system: COLO 205
SF-268 = test system: SF-268
NCI-H23 = test system: NCI-H23
OVCAR-4 = test system: OVCAR-4
SF-295 = test system: SF-295
MDA-N = test system: MDA-N
SW-620 = test system: SW-620
HCC 2998 = test system: HCC 2998
A498 = test system: A498
DU-145 = test system: DU-145
K562 = test system: K562
EKVX = test system: EKVX
SK-MEL-28 = test system: SK-MEL-28
SF-539 = test system: SF-539
PC-3 = test system: PC-3
OVCAR-5 = test system: OVCAR-5
UACC-257 = test system: UACC-257
HCT-15 = test system: HCT-15
T47D = test system: T47D
ACHN = test system: ACHN
OVCAR-8 = test system: OVCAR-8
SK-MEL-5 = test system: SK-MEL-5
CAKI-1 = test system: CAKI-1
HCT-116 = test system: HCT-116
SK-MEL-2 = test system: SK-MEL-2
RXF 393 = test system: RXF 393
HOP-62 = test system: HOP-62
UACC-62 = test system: UACC-62
HL-60 = test system: HL-60
LOX IMVI = test system: LOX IMVI
NCI-H522 = test system: NCI-H522
MDA-MB-435 = test system: MDA-MB-435
KM12 = test system: KM12
A549 = test system: A549
CCRF-CEM = test system: CCRF-CEM
Malme-3M = test system: Malme-3M
MOLT-4 = test system: MOLT-4
SK-OV-3 = test system: SK-OV-3
HOP-92 = test system: HOP-92
SR = test system: SR
NCI-H460 = test system: NCI-H460
SNB-75 = test system: SNB-75
U-251 = test system: U-251
MDA-MB-231 = test system: MDA-MB-231
UO-31 = test system: UO-31
OVCAR-3 = test system: OVCAR-3

Measured: GI50

CC(C)(C)OC(=O)C1C(=O)NC(=O)CC1C(OCc1ccccc1)C(OCc1ccccc1)C(COCc1ccccc1)OCc1ccccc1 (stereo not drawn)
inactive: 786-0 > 100 µM | HT-29 16.6 µM | SN12C > 100 µM | M14 > 100 µM and 71.8 µM | IGROV-1 > 100 µM | SNB-19 > 100 µM | NCI-H226 > 100 µM and 61.9 µM | TK-10 > 100 µM | NCI/ADR-RES > 100 µM and 58.6 µM | COLO 205 58.2 µM | SF-268 74 µM and 71.4 µM | NCI-H23 > 100 µM | OVCAR-4 50.6 µM | SF-295 50.6 µM | MDA-N > 100 µM | SW-620 > 100 µM | HCC 2998 > 100 µM | A498 > 75 µM | DU-145 > 75 µM | K562 65.8 µM and 88.3 µM | EKVX > 100 µM | SK-MEL-28 > 100 µM | SF-539 > 100 µM | PC-3 > 100 µM and 69.2 µM | OVCAR-5 > 100 µM | UACC-257 > 100 µM and 58.7 µM | T47D 2.14 µM | ACHN > 75 µM | OVCAR-8 > 100 µM and 52.5 µM
> 100 µM: HCT-15

C[C@@]1(O)C2CC3CC1(c1ccccc1)CC(/C3=N/O)/C2=N\O (stereo partly drawn)
> 100 µM: HCT-15
inactive: 786-0 > 100 µM | SK-MEL-5 > 100 µM | HT-29 > 100 µM | SN12C > 100 µM | CAKI-1 > 100 µM | HCT-116 > 100 µM | M14 > 100 µM | SK-MEL-2 > 100 µM | IGROV-1 > 100 µM | SNB-19 > 100 µM | NCI-H226 > 100 µM | RXF 393 > 100 µM | HOP-62 > 100 µM | UACC-62 > 100 µM | HL-60 > 100 µM | NCI/ADR-RES > 100 µM | LOX IMVI > 100 µM | COLO 205 > 100 µM | SF-268 > 100 µM | NCI-H23 > 100 µM | OVCAR-4 > 100 µM | NCI-H522 > 100 µM | MDA-MB-435 > 100 µM | KM12 > 100 µM | A549 > 100 µM | SF-295 > 100 µM | CCRF-CEM > 100 µM | SW-620 > 100 µM | Malme-3M > 100 µM | HCC 2998 > 100 µM | MOLT-4 > 100 µM | SK-OV-3 > 100 µM | A498 > 100 µM | HOP-92 > 100 µM | DU-145 > 100 µM | SR > 100 µM | K562 > 100 µM | EKVX > 100 µM | SK-MEL-28 > 100 µM | SF-539 > 100 µM | PC-3 > 100 µM | NCI-H460 > 100 µM | OVCAR-5 > 100 µM | SNB-75 > 100 µM | UACC-257 > 100 µM | U-251 > 100 µM | MDA-MB-231 > 100 µM | T47D > 100 µM | UO-31 > 100 µM | ACHN > 100 µM | OVCAR-3 > 100 µM | OVCAR-8 > 100 µM
